Test results: patent US4935425A, “4H-quinolizin-4-ones for treatment of diseases associated with immunoglobulin e-antibody formation” (Kissei Pharmaceutical Co., Ltd., priority 1987, dated 1990)

Assays:
[1] = tested on: IgG; test: Determination of IgG (Igs other than IgE) produced in in vitro culture of spleen cells from DNP-As immunized mice (ELISA); format: cell-based, BALB/c mice; details: Mus musculus, 96 h, 4 days culture, 37° C.; for inhibition at 20 µg/mL: 20 μg/ml; for inhibition at 10 µg/mL: 10 μg/ml
Method: (§1) And the inhibitory activities of the quinolizinone derivative of formula (I) are further confirmed by the determination of serum concentrations of Igs in BALB/c mice which are immunized by DNP-As according to a procedure described in Immunology, Vol 21, pp 11-12, 1971.
(§2) BALB/c mice were immunized intraperitoneally with 5 μg of DNP-As adsorbed on 4 mg aluminum hydroxide gel Four weeks after the immunization,the spleens were excised from the mice and 5×10^7 spleen cells were transferred intravenously into the recipient mice which had been exposed to 600 rad of X-ray irradiation. Immediately after cell transfer, the recipients were then immunized intraperitoneally with 5 μg of DNP-As adsorbed on 4 mg aluminum hydroxide gel to induce adoptive secondary immune response. Further 4 weeks after the immunization of recipients, the spleens were excised from them and the spleen cell suspensions containing 5×10^6 cells/ml were cultured with or without a compound to be tested in 96-well micro-titer plates at 37° C. for 4 days. IgE and IgG secreted into the culture supernatant was each determined correspondingly by ELISA and the inhibitory effect was calculated according to the following equation. [formula]

[2] = tested on: IgE; test: Determination of IgE produced in in vitro culture of spleen cells from DNP-As immunized mice (ELISA); format: cell-based, BALB/c mice; details: Mus musculus, 96 h, 4 days culture, 37° C.; for inhibition at 20 µg/mL: 20 μg/ml; for inhibition at 10 µg/mL: 10 μg/ml
Method: as §1, §2

Question: For `CCOC(=O)c1c(NCc2ccccn2)c(C#N)c(=O)n2ccccc12` [S-1, 3-Cyano-1-ethoxycarbonyl-2-(2-pyridylmethylamino)-4H-quinolizin-4-one], which inhibition at 20 µg/mL [1] is on record?
Answer: 13%

Question: And the inhibition at 20 µg/mL [2]?
Answer: 60%

Question: Which results are given for `CCOC(=O)c1c(NCc2cccnc2)c(C#N)c(=O)n2ccccc12` [S-6, 3-Cyano-1-ethoxycarbonyl-2-(3-pyridylmethylamino)-4H-quinolizin-4-one]?
Answer: inhibition at 20 µg/mL [1]: 16%; inhibition at 20 µg/mL [2]: 68%

Question: How did the inhibition at 10 µg/mL [1] turn out when `CCOC(=O)c1c(NCc2cnccn2)c(C#N)c(=O)n2ccccc12` [S-14, 3-Cyano-1-ethoxycarbonyl-2-pyrazinylmethylamino-4H-quinolizin-4-one] was run?
Answer: 1%

Question: What about the inhibition at 10 µg/mL [2] of the same compound?
Answer: 72%

Question: Which results are given for `CCOC(=O)c1c(NCc2nccnc2C)c(C#N)c(=O)n2ccccc12` [S-15, 3-Cyano-1-ethoxycarbonyl-2-(3-methylpyrazinyl)methylamino-4H-quinolizin-4-one]?
Answer: inhibition at 10 µg/mL [1]: 3%; inhibition at 10 µg/mL [2]: 73%

Question: How did the inhibition at 20 µg/mL [1] turn out when `CCOC(=O)c1c(NCc2cnc(C)cn2)c(C#N)c(=O)n2ccccc12` [S-16, 3-Cyano-1-ethoxycarbonyl-2-(5-methylpyrazinyl)-methylamino-4H-quinolizin-4-one] was run?
Answer: 7%

Question: What about the inhibition at 20 µg/mL [2] of the same compound?
Answer: 68%

Question: For `CCOC(=O)c1c(NCc2cncc(C)n2)c(C#N)c(=O)n2ccccc12` [S-17, 3-Cyano-1-ethoxycarbonyl-2-(6-methylpyrazinyl)-methylamino-4H-quinolizin-4-one], which inhibition at 10 µg/mL [1] is on record?
Answer: 12%

Question: What about the inhibition at 10 µg/mL [2] of the same compound?
Answer: 68%
